Literature values, collected in patent US9915714B2, “MSC-SELMQC method for simultaneous mapping of polyunsaturated fatty acids, lactate and choline in high fat tissues” (University of Pittsburgh—Of the Commonwealth System of …, priority 2007, dated 2018).

Test system: RIF-1 tumors
Conditions: following therapeutic intervention, 300 mg/kg; correlates with increases in tumor perfusion and permeability (Gd-DTPA uptake curves)

O=P1(N(CCCl)CCCl)NCCCO1 (stereo not shown) [cyclophosphamide]
lactate levels in RIF-1 tumors: decrease
